Source: PMC6917698, “One-Pot Radiosynthesis and Biological Evaluation of a Caspase-3 Selective 5-[^123,125I]iodo-1,2,3-triazole derived Isatin SPECT Tracer” (Scientific Reports, 2019)

Key:
[1] = Log D measurement (n-octanol/PBS, gamma counting); type: physicochemical; settings: measured with 125I-labelled compound
[2] = test system: SW1222 tumour-bearing mice; assay: Ex vivo biodistribution in SW1222 tumour-bearing mice; settings: for Uptake in tumour: SW1222 xenograft, 60 min after i.v. injection
[3] = target: T1, Recombinant human caspase-3 (Homo sapiens, UniProt P42574); assay: Caspase enzyme inhibition assay (fluorogenic Ac-DEVD-AMC), caspase-3
T1 sequence (P42574 29-175 limits assumed): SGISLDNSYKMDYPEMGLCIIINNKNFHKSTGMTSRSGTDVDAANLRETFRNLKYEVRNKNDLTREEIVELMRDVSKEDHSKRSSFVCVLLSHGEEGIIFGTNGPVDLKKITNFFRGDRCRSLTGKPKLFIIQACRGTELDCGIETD
T1 sequence (P42574 176-277 limits assumed): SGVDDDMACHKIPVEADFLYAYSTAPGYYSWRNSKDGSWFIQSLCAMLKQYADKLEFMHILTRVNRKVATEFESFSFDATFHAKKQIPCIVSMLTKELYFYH

[4] = target: Recombinant human caspase-8 (Homo sapiens, UniProt Q14790); assay: Caspase enzyme inhibition assay (fluorogenic Ac-IETD-AMC), caspase-8
Sequence of Recombinant human caspase-8 (Q14790 217-374 limits assumed): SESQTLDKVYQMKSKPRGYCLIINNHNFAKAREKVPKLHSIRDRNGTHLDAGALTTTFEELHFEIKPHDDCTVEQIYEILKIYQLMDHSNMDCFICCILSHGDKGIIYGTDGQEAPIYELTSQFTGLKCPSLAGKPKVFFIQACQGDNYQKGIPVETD
Sequence of Recombinant human caspase-8 (Q14790 385-479 limits assumed): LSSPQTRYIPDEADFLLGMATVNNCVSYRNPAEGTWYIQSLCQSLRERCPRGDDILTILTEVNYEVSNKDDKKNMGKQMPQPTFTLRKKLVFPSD

[5] = Plasma metabolite analysis by HPLC; type: in vivo, mice; settings: 15 min post-injection, i.v.
Description: However, the overall uptake in the tumour was too low to allow in vivo imaging of tumour apoptosis with SPECT. […] It is unclear if this reflects drug induced apoptosis, or if the observed changes were due to swelling or increased local blood flow. […] A single polar radioactive metabolite was detected consistent with deiodination in vivo to give [^125I]iodide. However, it should be noted that a similar polar metabolite has been observed for the non-iodinated analog [^18F]ICM-11, and the low uptake in the thyroid (2.4 ± 1%ID/g at 60 min post-injection) and high liver uptake point to another metabolic route. In any case, the rapid metabolism makes FITI poorly suited as a tracer for in vivo imaging of apoptosis.
After an incubation period at 37 °C
linear correlation software (OriginPro 2015).
3.2. Plasma metabolite analysis
The supernatant was decanted and mixed with
3.3. Biodistribution studies in mice
week prior to initiation of studies.
College London Animal Ethics Committee.4
were rapidly excised and weighed.

[6] = control animals, 60 min after i.v. tail vein injection

Compound | logD [1] | Increase in tumour uptake after etoposide-induced cell death ([2]; SW1222 xenograft model, etoposide vs control) [fold] | Ki [3] [µM] | IC50 [4] [µM] | Intact parent tracer in mouse plasma [5] | Uptake in thyroid ([2]; 60 min post-injection) [%ID/g] | Uptake in liver [2, 6] [%ID/g] | Uptake in small intestine [2, 6] [%ID/g] | Uptake in stomach [2, 6] [%ID/g] | Uptake in tumour ([2]; control animals) [%ID/g] | Uptake in tumour ([2]; etoposide-treated mice (50 mg/kg, 24 hrs, i.p.), p < 0.001 vs control) [%ID/g]
O=C1C(=O)N(Cc2nnn(CCF)c2I)c2ccc(S(=O)(=O)N3CCC[C@H]3COc3ccc(F)cc3F)cc21 [FITI, (S)-5-((2-((2,4-difluorophenoxy)methyl)pyrrolidin-1-yl)sulfonyl)-1-((1-(2-Fluoroethyl)-5-(Iodo)-1H-1,2,3-Triazol-4-yl)methyl)Indoline-2,3-dione] | 1.6 ± 0.1 | 2 | 0.0061 ± 0.0009 | > 50 |  |  |  |  |  |  | 
O=C1C(=O)N(Cc2nnn(CCF)c2[125I])c2ccc(S(=O)(=O)N3CCCC3COc3ccc(F)cc3F)cc21 (stereo not shown) [[^125I]FITI] |  |  |  |  | less than 50% | 2.4 ± 1 | 17 ± 6 | 48 ± 13 | 28 ± 25 | 0.7 ± 0.4 | 1.5 ± 0.2
O=C1C(=O)N(Cc2nnn(CCF)c2I)c2ccccc21 [compound 4] | 1.14 ± 0.06 |  | > 50 |  |  |  |  |  |  |  | 
